Assay results as given in patent publication US20230085307A1, “PYRIDAZINONE COMPOUND AND HERBICIDE” (NISSAN CHEMICAL CORPORATION, priority 2019, published 2023).

Tests used:
[1] = tested on: velvetleaf; test: Test Example 4: herbicidal effect by soil treatment (Table 19, symbol M); assay type: in vivo, velvetleaf (Abutilon theophrasti); details: amount of applied herbicide 320 g/ha
Summary of the method: (§1)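 In this soil treatment, the formulated compound reached the seeds only through the soil: seeds were buried about 1.5 cm deep in sterilized diluvial soil, then the diluted emulsion was sprayed over the surface. After three weeks at 25° C. to 30° C. in a greenhouse, effects were graded on criteria from an earlier test.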

[2] = tested on: windgrass; test: Test Example 5: herbicidal effect by foliage application, plastic box (Table 20, symbol L); assay type: in vivo, windgrass (Apera spica-venti); details: foliage application, 320 g/ha, evaluated three weeks after application
Summary of the method: (§2)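 Plants were sown into sterilized diluvial soil under about 1.5 cm cover and kept in a greenhouse at 25° C. to 30° C. Fourteen days on, foliage received an even spray of the diluted emulsion. Herbicidal or crop effect was judged three weeks afterwards.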

[3] = tested on: wild oat; test: Test Example 4: herbicidal effect by soil treatment (Table 19, symbol I); assay type: in vivo, wild oat (Avena fatua); details: amount of applied herbicide 320 g/ha
Summary of the method: as §1

[4] = tested on: green foxtail; test: Test Example 5: herbicidal effect by foliage application, plastic box (Table 20, symbol G); assay type: in vivo, green foxtail (Setaria viridis); details: foliage application, 320 g/ha, evaluated three weeks after application
Summary of the method: as §2

[5] = tested on: chickweed; test: Test Example 5: herbicidal effect by foliage application, plastic box (Table 20, symbol P); assay type: in vivo, common chickweed (Stellaria media); details: foliage application, 320 g/ha, evaluated three weeks after application
Summary of the method: as §2

[6] = tested on: rice flat sedge; test: Test Example 3: herbicidal effect by foliage application, Wagner pot (Table 18, symbol E); assay type: in vivo, rice flat sedge (Cyperus iria); details: amount of applied herbicide 320 g/ha
Summary of the method: (§3)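 Plants were sown in alluvial soil held under 0.1–0.5 cm standing water and grown 14 days in a greenhouse at 25–30 °C. An emulsifiable formulation, water-diluted to the set dose, was then sprayed onto the foliage, and effects were scored three weeks later using previously defined criteria.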

[7] = tested on: barnyard grass; test: Test Example 4: herbicidal effect by soil treatment (Table 19, symbol H); assay type: in vivo, barnyard grass (Echinochloa crus-galli); details: amount of applied herbicide 320 g/ha
Summary of the method: as §1

[8] = tested on: redroot pigweed; test: Test Example 5: herbicidal effect by foliage application, plastic box (Table 20, symbol N); assay type: in vivo, redroot pigweed (Amaranthus retroflexus); details: foliage application, 320 g/ha, evaluated three weeks after application
Summary of the method: as §2

[9] = tested on: barnyard grass; test: Test Example 5: herbicidal effect by foliage application, plastic box (Table 20, symbol H); assay type: in vivo, barnyard grass (Echinochloa crus-galli); details: foliage application, 320 g/ha, evaluated three weeks after application
Summary of the method: as §2

[10] = tested on: lambsquarters; test: Test Example 5: herbicidal effect by foliage application, plastic box (Table 20, symbol O); assay type: in vivo, lambsquarters (Chenopodium album); details: foliage application, 320 g/ha, evaluated three weeks after application
Summary of the method: as §2

[11] = tested on: southern crabgrass; test: Test Example 5: herbicidal effect by foliage application, plastic box (Table 20, symbol F); assay type: in vivo, southern crabgrass (Digitaria ciliaris); details: foliage application, 320 g/ha, evaluated three weeks after application
Summary of the method: as §2

[12] = tested on: persian speedwell; test: Test Example 5: herbicidal effect by foliage application, plastic box (Table 20, symbol R); assay type: in vivo, Persian speedwell (Veronica persica); details: foliage application, 320 g/ha, evaluated three weeks after application
Summary of the method: as §2

[13] = tested on: velvetleaf; test: Test Example 5: herbicidal effect by foliage application, plastic box (Table 20, symbol M); assay type: in vivo, velvetleaf (Abutilon theophrasti); details: foliage application, 320 g/ha, evaluated three weeks after application
Summary of the method: as §2

[14] = tested on: blackgrass; test: Test Example 4: herbicidal effect by soil treatment (Table 19, symbol J); assay type: in vivo, blackgrass (Alopecurus myosuroides); details: amount of applied herbicide 320 g/ha
Summary of the method: as §1

[15] = tested on: persian speedwell; test: Test Example 4: herbicidal effect by soil treatment (Table 19, symbol R); assay type: in vivo, Persian speedwell (Veronica persica); details: amount of applied herbicide 320 g/ha
Summary of the method: as §1

[16] = tested on: chickweed; test: Test Example 4: herbicidal effect by soil treatment (Table 19, symbol P); assay type: in vivo, common chickweed (Stellaria media); details: amount of applied herbicide 320 g/ha
Summary of the method: as §1

[17] = tested on: windgrass; test: Test Example 4: herbicidal effect by soil treatment (Table 19, symbol L); assay type: in vivo, windgrass (Apera spica-venti); details: amount of applied herbicide 320 g/ha
Summary of the method: as §1

[18] = tested on: wild oat; test: Test Example 5: herbicidal effect by foliage application, plastic box (Table 20, symbol I); assay type: in vivo, wild oat (Avena fatua); details: foliage application, 320 g/ha, evaluated three weeks after application
Summary of the method: as §2

[19] = tested on: false cleavers; test: Test Example 4: herbicidal effect by soil treatment (Table 19, symbol Q); assay type: in vivo, false cleavers (Galium spurium); details: amount of applied herbicide 320 g/ha
Summary of the method: as §1

[20] = tested on: Italian ryegrass; test: Test Example 4: herbicidal effect by soil treatment (Table 19, symbol K); assay type: in vivo, Italian ryegrass (Lolium multiflorum); details: amount of applied herbicide 320 g/ha
Summary of the method: as §1

[21] = tested on: southern crabgrass; test: Test Example 4: herbicidal effect by soil treatment (Table 19, symbol F); assay type: in vivo, southern crabgrass (Digitaria ciliaris); details: amount of applied herbicide 320 g/ha
Summary of the method: as §1

[22] = tested on: redroot pigweed; test: Test Example 4: herbicidal effect by soil treatment (Table 19, symbol N); assay type: in vivo, redroot pigweed (Amaranthus retroflexus); details: amount of applied herbicide 320 g/ha
Summary of the method: as §1

[23] = tested on: green foxtail; test: Test Example 4: herbicidal effect by soil treatment (Table 19, symbol G); assay type: in vivo, green foxtail (Setaria viridis); details: amount of applied herbicide 320 g/ha
Summary of the method: as §1

[24] = tested on: lambsquarters; test: Test Example 4: herbicidal effect by soil treatment (Table 19, symbol O); assay type: in vivo, lambsquarters (Chenopodium album); details: amount of applied herbicide 320 g/ha
Summary of the method: as §1

[25] = tested on: blackgrass; test: Test Example 5: herbicidal effect by foliage application, plastic box (Table 20, symbol J); assay type: in vivo, blackgrass (Alopecurus myosuroides); details: foliage application, 320 g/ha, evaluated three weeks after application
Summary of the method: as §2

[26] = tested on: Chinese sprangletop; test: Test Example 3: herbicidal effect by foliage application, Wagner pot (Table 18, symbol D); assay type: in vivo, chinese sprangletop (Leptochloa chinensis); details: amount of applied herbicide 320 g/ha
Summary of the method: as §3

[27] = tested on: Italian ryegrass; test: Test Example 5: herbicidal effect by foliage application, plastic box (Table 20, symbol K); assay type: in vivo, Italian ryegrass (Lolium multiflorum); details: foliage application, 320 g/ha, evaluated three weeks after application
Summary of the method: as §2

[28] = tested on: barnyard grass; test: Test Example 3: herbicidal effect by foliage application, Wagner pot (Table 18, symbol H); assay type: in vivo, barnyard grass (Echinochloa crus-galli); details: amount of applied herbicide 320 g/ha
Summary of the method: as §3

Row | SMILES | M: velvetleaf, herbicidal effect rating [1] | I: wild oat, herbicidal effect rating [3] | herbicidal effect on E: rice flat sedge [6] | H: barnyard grass, herbicidal effect rating [7] | J: blackgrass, herbicidal effect rating [14] | R: persian speedwell, herbicidal effect rating [15] | P: chickweed, herbicidal effect rating [16] | L: windgrass, herbicidal effect rating [17] | Q: false cleavers, herbicidal effect rating [19] | K: Italian ryegrass, herbicidal effect rating [20] | F: southern crabgrass, herbicidal effect rating [21] | N: redroot pigweed, herbicidal effect rating [22] | G: green foxtail, herbicidal effect rating [23] | O: lambsquarters, herbicidal effect rating [24] | herbicidal effect on D: Chinese sprangletop [26] | herbicidal effect on H: barnyard grass [28] | other results
1 | Cc1ccc2sc(-c3ccccc3)c(-c3c(O)c(C)nn(C)c3=O)c2c1 [2-132] | 0 (Herbicidal rate of 5% or less (almost no effect)) | 0 (Herbicidal rate of 5% or less (almost no effect)) | 5 (Herbicidal rate of 90% or more (almost completely withered)) | 3 (Herbicidal rate of 40% or more and less than 70%) | 0 (Herbicidal rate of 5% or less (almost no effect)) | 3 (Herbicidal rate of 40% or more and less than 70%) | 4 (Herbicidal rate of 70% or more and less than 90%) | 0 (Herbicidal rate of 5% or less (almost no effect)) | 0 (Herbicidal rate of 5% or less (almost no effect)) | 2 (Herbicidal rate of 20% or more and less than 40%) | 1 (Herbicidal rate of 5% or more and less than 20%) | 0 (Herbicidal rate of 5% or less (almost no effect)) | 3 (Herbicidal rate of 40% or more and less than 70%) | 5 (Herbicidal rate of 90% or more (almost completely withered)) | 0 (Herbicidal rate of 5% or less (almost no effect)) | 0 (Herbicidal rate of 5% or less (almost no effect)) | herbicidal effect on L: windgrass [2]: 0 (Herbicidal rate of 5% or less (almost no effect)); herbicidal effect on G: green foxtail [4]: 3 (Herbicidal rate of 40% or more and less than 70%); herbicidal effect on P: chickweed [5]: 5 (Herbicidal rate of 90% or more (almost completely withered)); herbicidal effect on N: redroot pigweed [8]: 5 (Herbicidal rate of 90% or more (almost completely withered)); herbicidal effect on H: barnyard grass [9]: 0 (Herbicidal rate of 5% or less (almost no effect)); herbicidal effect on O: lambsquarters [10]: 4 (Herbicidal rate of 70% or more and less than 90%); herbicidal effect on F: southern crabgrass [11]: 1 (Herbicidal rate of 5% or more and less than 20%); herbicidal effect on R: persian speedwell [12]: 5 (Herbicidal rate of 90% or more (almost completely withered)); herbicidal effect on M: velvetleaf [13]: 3 (Herbicidal rate of 40% or more and less than 70%); herbicidal effect on I: wild oat [18]: 0 (Herbicidal rate of 5% or less (almost no effect)); herbicidal effect on J: blackgrass [25]: 2 (Herbicidal rate of 20% or more and less than 40%); herbicidal effect on K: Italian ryegrass [27]: 5 (Herbicidal rate of 90% or more (almost completely withered))
2 | Cc1ccc2sc(-c3ccc([N+](=O)[O-])cc3)c(-c3c(O)c(C)nn(C)c3=O)c2c1 [2-144] | 0 (Herbicidal rate of 5% or less (almost no effect)) | 0 (Herbicidal rate of 5% or less (almost no effect)) | 3 (Herbicidal rate of 40% or more and less than 70%) | 0 (Herbicidal rate of 5% or less (almost no effect)) | 0 (Herbicidal rate of 5% or less (almost no effect)) | 2 (Herbicidal rate of 20% or more and less than 40%) | 1 (Herbicidal rate of 5% or more and less than 20%) | 0 (Herbicidal rate of 5% or less (almost no effect)) | 0 (Herbicidal rate of 5% or less (almost no effect)) | 0 (Herbicidal rate of 5% or less (almost no effect)) | 2 (Herbicidal rate of 20% or more and less than 40%) | 3 (Herbicidal rate of 40% or more and less than 70%) | 0 (Herbicidal rate of 5% or less (almost no effect)) | 3 (Herbicidal rate of 40% or more and less than 70%) | 0 (Herbicidal rate of 5% or less (almost no effect)) | 2 (Herbicidal rate of 20% or more and less than 40%) | herbicidal effect on L: windgrass (criteria 0-5) [2]: 0 (Herbicidal rate of 5% or less (almost no effect)); herbicidal effect on G: green foxtail (criteria 0-5) [4]: 0 (Herbicidal rate of 5% or less (almost no effect)); herbicidal effect on P: chickweed (criteria 0-5) [5]: 4 (Herbicidal rate of 70% or more and less than 90%); herbicidal effect on N: redroot pigweed (criteria 0-5) [8]: 5 (Herbicidal rate of 90% or more (almost completely withered)); herbicidal effect on H: barnyard grass (criteria 0-5) [9]: 0 (Herbicidal rate of 5% or less (almost no effect)); herbicidal effect on O: lambsquarters (criteria 0-5) [10]: 3 (Herbicidal rate of 40% or more and less than 70%); herbicidal effect on F: southern crabgrass (criteria 0-5) [11]: 0 (Herbicidal rate of 5% or less (almost no effect)); herbicidal effect on R: persian speedwell (criteria 0-5) [12]: 5 (Herbicidal rate of 90% or more (almost completely withered)); herbicidal effect on M: velvetleaf (criteria 0-5) [13]: 2 (Herbicidal rate of 20% or more and less than 40%); herbicidal effect on I: wild oat (criteria 0-5) [18]: 0 (Herbicidal rate of 5% or less (almost no effect)); herbicidal effect on J: blackgrass (criteria 0-5) [25]: 0 (Herbicidal rate of 5% or less (almost no effect)); herbicidal effect on K: Italian ryegrass (criteria 0-5) [27]: 4 (Herbicidal rate of 70% or more and less than 90%)
